In patent publication US20240309389A1, “Chimeric FCeRI a-Chain Gene, Chimeric FCeRI a-Chain Protein, Cells, Analysis Kit and Analysis Method” (TEIKYO HEISEI UNIVERSITY, priority 2021, published 2024):

Assays:
Type in all cases: cell-based, rat
RBL-NL4 cells = assay: Luciferase expression on stimulation in RBL-NL4 cells; conditions: unsensitized, 250 μM, 37° C., 3 hours
Description: Luciferase expression of when stimulated with ionomycin, anti-human IgE antibody, or specific antigen is confirmed for each of cultures obtained by culturing the seven clones obtained in (2) above and RBL-NL4 cells. Specifically, the confirmation was carried out as follows.
On the day before the test for confirming luciferase expression when the stimulus was applied, the following operations were performed. […] The medium was placed in each well of a white 96-well plate made of plastic with a transparent bottom (product number: 165306, Thremo). Cells of each clone were then seeded at 5×10^4 cells/50 μL per well, and allowed to stand overnight in an incubator for sensitization. […]
After applying the stimulation, 50 μL/well of a substrate solution (One-Glo Luciferase Assay System, Promega) was added to each well and allowed to react for 5 minutes, and then the luminescence intensity was measured using a luminometer (GloMax, Promega).
In FIG. 7, black dots indicate the measured luciferase luminescence intensity (unit: CPS) (right axis: LUMINESCENCE (CPS)). […] The relative luminescence intensity is the relative luminescence intensity when the luminescence intensity of each clone when unstimulated is set to 1, and is shown on a log scale.

RS-ATL8 cells = assay: IgE crosslinking-induced luciferase expression, inhibitor evaluation in RS-ATL8 cells
Description: (§1) HuRa-40 cells and RS-ATL8 cells were prepared.
(§2) After washing the sensitized cells with PBS three times, […] was added and stimulated at 37° C. for 3 hours.
(§3) After the stimulation time had elapsed, Bright-Glo (Promega) substrate solution was added to each well in an amount of 50 μL/well, and reacted for 5 minutes at room temperature while shielding from light. After that, the luminescence intensity was measured with a microplate reader (GloMax, Promega).
(§4) A study similar to that described above was performed with cyclosporin A instead of omalizumab. Specifically, RS-ATL8 cells or HuRa-40 cells were added with cyclosporin A at a final concentration of 0 to 1 μg/mL, and, 30 minutes later, 50 ng/ml of human IgE was added to sensitize them overnight. After washing with PBS three times, the cells were stimulated with an anti-human IgE antibody for 3 hours, and Bright-Glo was added to measure luminescence.

HuRa-40 cells = assay: IgE crosslinking-induced luciferase expression, inhibitor evaluation in HuRa-40 cells
Description: as §1, §2, §3, §4

[1] = drug added 30 min before 50 ng/ml human IgE overnight sensitization, anti-human IgE stimulation 3 h, read from FIG. 17
[2] = omalizumab 100 μg/mL, fraction of the 0 μg/mL value

Compound | luciferase expression level compared to anti-human IgE antibody stimulation (no IgE and aIgE) (RBL-NL4 cells) | change of luminescence intensity, concentration increased from 0.1 μg/mL to 1 μg/mL (RS-ATL8 cells) | change of luminescence intensity, concentration increased from 1 μg/mL to 10 μg/mL (RS-ATL8 cells) | 50% inhibitory concentration (IC50) (RS-ATL8 cells; [1]) | luminescence intensity at 100 μg/mL compared to 0 μg/mL (RS-ATL8 cells; [2]) | change of luminescence intensity, concentration increased from 0.1 μg/mL to 1 μg/mL (HuRa-40 cells) | 50% inhibitory concentration (IC50) (HuRa-40 cells; [1]) | luminescence intensity at 100 μg/mL compared to 0 μg/mL (HuRa-40 cells; [2])
C[C@H](CCC(=O)O)C[C@H](C)C[C@H](C)C(=O)/C=C(\O)[C@H](C)C[C@H](C)C/C=C/[C@@H](C)[C@@H](O)[C@@H](C)[C@@H](O)C[C@@H]1CC[C@@](C)([C@H]2CC[C@@](C)([C@@H](C)O)O2)O1 [ionomycin] | greatly increased |  |  |  |  |  |  | 
Omalizumab |  | decreased slightly | further decreased | greater than 1 μg/mL | about ¼ | significant decrease in luminescence intensity | less than 1 μg/mL | less than 1/30
